Test results: US20120165319A1, “INHIBITORS OF INTERLEUKIN-1 BETA CONVERTING ENZYME” (VERTEX PHARMACEUTICALS INCORPORATED, priority 1995, published 2012)
Values joined by “and” are separate entries in the source; they are usually repeats but may differ in a detail not shown here. Identical values can stand only once. Like-named read-outs stand apart in the source and are kept apart here.

Tests used:
[1] = system: IL-1β, human peripheral blood mononuclear cells (PBMC); test: PBMC cell assay: IL-1β assay with human PBMC or enriched adherent mononuclear cells, LPS-stimulated; assay type: cell-based
Method in brief: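 Buffy-coat human PBMC at 6×10^6 cells/ml, or adherent monocytes enriched by 1 h adherence (2.5−3.0×10^5 cells/well), are given 5–6 compound dilutions bracketing the ICE Ki (final DMSO 0.1%) plus LPS at a final 5 ng/ml. They are incubated 16–18 hr at 37 °C, 5% CO2, and supernatant mature IL-1β is measured by ELISA, with duplicate cultures and duplicate ELISAs.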

[2] = system: IL-1β production, LPS-challenged mice; test: In vivo acute assay for efficacy as anti-inflammatory agent: LPS-induced IL-1β production in mice; set-up: species or system mouse; conditions: for inhibition at 50 mg/kg: Mus musculus, po, read-out: percent inhibition of IL-1β production; for inhibition at 50 mg/kg / percent inhibition of IL-1β production / Inhibition of IL-1β Production, compound administered 0 hr relative to LPS challenge / Inhibition of IL-1β Production, compound administered +1 hr relative to LPS challenge / Inhibition of IL-1β Production, compound administered −1 hr relative to LPS challenge / Inhibition of IL-1β Production, compound administered −2 hr relative to LPS challenge: LPS challenged mice, 50 mg/kg; for inhibition at 50 mg/kg / percent inhibition of IL-1β production: compound PO; for Inhibition of IL-1β Production, compound administered 0 hr relative to LPS challenge / Inhibition of IL-1β Production, compound administered +1 hr relative to LPS challenge / Inhibition of IL-1β Production, compound administered −1 hr relative to LPS challenge / Inhibition of IL-1β Production, compound administered −2 hr relative to LPS challenge / POS Inhibition: PO; for Inhibition of IL-1β Production, compound administered 0 hr relative to LPS challenge / Inhibition of IL-1β Production, compound administered +1 hr relative to LPS challenge / Inhibition of IL-1β Production, compound administered −1 hr relative to LPS challenge / Inhibition of IL-1β Production, compound administered −2 hr relative to LPS challenge: * = values obtained in subsequent assays (Table 4); for IP % Inhibition / POS Inhibition: % inhibition of IL-β production, LPS-challenged mice, 50 mg/kg (Table 3)
Method in brief: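 CD1 mice (n=6) were challenged with LPS 20 mg/kg IP and given compound IP in olive oil:DMSO:ethanol (90:5:5) 1 h after LPS, or at the time of challenge for some analogs. Blood was taken 7 h after LPS and serum IL-1β was measured by ELISA. Oral gavage at 50 mg/kg was also tested.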

[3] = 0 h, administered 0 h relative to time of LPS challenge
[4] = 2 h, administered −2 h relative to time of LPS challenge
[5] = Homo sapiens, PBMC, * = values obtained upon reassay
[6] = * = values obtained upon reassay
[7] = 1 h, administered +1 h relative to time of LPS challenge

| Structure (SMILES) | IC50 ([1]; Homo sapiens, PBMC, Table 17) | inhibition at 50 mg/kg [2, 3] | inhibition at 50 mg/kg [2, 4] | IC50 [1, 5] | also measured |
| --- | --- | --- | --- | --- | --- |
| O=C[C@H](CC(=O)O)NC(=O)[C@@H]1CCCN2C(=O)CC[C@H](NC(=O)c3cc(Cl)c(O)c(Cl)c3)C(=O)N12 [Compound 214k, [3S(1S,9S)]3-(9-(3,5-Dichloro-4-hydroxybenzoyl)amino-6,10-dioxo-1,2,3,4,7,8,9,10-octahydro-6H-pyridazino[1,2-a][1,2]diazepine-1-carboxamido)-4-oxobutanoic acid] | 500 nM | 31% | 12% |  |  |
| CC(=O)Nc1ccc(C(=O)N[C@H]2CCC(=O)N3CCC[C@@H](C(=O)N[C@H](C=O)CC(=O)O)N3C2=O)cc1Cl [Compound 214l, [3S(1S,9S)]3-(9-(3-Chloro-4-acetamidobenzoyl)amino-6,10-dioxo-1,2,3,4,7,8,9,10-octahydro-6H-pyridazino[1,2-a][1,2]diazepine-1-carboxamido)-4-oxobutanoic acid] | 1900 nM | 54% | 0% |  |  |
| COc1c(Cl)cc(C(=O)N[C@H]2CCC(=O)N3CCC[C@@H](C(=O)N[C@H](C=O)CC(=O)O)N3C2=O)cc1Cl [Compound 214m] | 530 nM | 17% | 0% |  |  |
| Cc1cc(C(=O)N[C@H]2CCC(=O)N3CCC[C@@H](C(=O)N[C@H](C=O)CC(=O)O)N3C2=O)cc(C)c1O [Compound 214w] |  |  |  |  | IC50 ([1]; Table 17): 620 nM; percent inhibition of IL-1β production ([2]; administered 0 h relative to time of LPS challenge): 91%; percent inhibition of IL-1β production ([2]; administered −2 h relative to time of LPS challenge): 11% |
| CC(C)(C)OC(=O)C[C@@H](C=O)NC(=O)[C@@H]1CCCN2C(=O)CC[C@H](NC(=O)c3ccccc3)C(=O)N12 [Compound 302, [3S(1S,9S)3-(9-Benzoylamino-6,10-dioxo-1,2,3,4,7,8,9,10-octahydro-6H-pyriazino-[1,2-a][1,2]diazapine-1-carboxamido)-amino]-4-oxobutanoic acid tert-butyl ester] |  |  |  | > 20000 nM | Inhibition of IL-1β Production, compound administered 0 hr relative to LPS challenge [2]: 21%; Inhibition of IL-1β Production, compound administered +1 hr relative to LPS challenge [2]: 26%; Inhibition of IL-1β Production, compound administered −1 hr relative to LPS challenge [2]: 27%; Inhibition of IL-1β Production, compound administered −2 hr relative to LPS challenge [2]: 0% |
| O=C[C@H](CC(=O)O)NC(=O)[C@@H]1CCCN2C(=O)CC[C@H](NC(=O)c3ccc(Cl)cc3)C(=O)N12 [Compound 416] |  |  |  | 1200 nM | IP % Inhibition [2]: 39%; POS Inhibition [2]: 52% |
| O=C[C@H](CC(=O)O)NC(=O)[C@@H]1CCCN2C(=O)CC[C@H](NC(=O)c3ccc4nc[nH]c4c3)C(=O)N12 [Compound 434] |  | 63% | 0% | 1600 nM | IC50 [1, 6]: 1200 nM; IP % Inhibition [2]: 74%; POS Inhibition [2]: 80%; inhibition at 50 mg/kg [2, 7]: 80% |
| O=C[C@H](CC(=O)O)NC(=O)[C@@H]1CCCN2C(=O)CC[C@H](NC(=O)c3cc4ccsc4s3)C(=O)N12 [Compound 442] |  |  |  | 900 nM | IP % Inhibition [2]: 0%; POS Inhibition [2]: 10% |
| CN(C)c1cccc(C(=O)N[C@H]2CCC(=O)N3CCC[C@@H](C(=O)N[C@H](C=O)CC(=O)O)N3C2=O)c1 [Compound 470] |  | 36% | 0% | 500 nM |  |
| CN(C)c1ccc(C(=O)N[C@H]2CCC(=O)N3CCC[C@@H](C(=O)N[C@H](C=O)CC(=O)O)N3C2=O)cc1 [Compound 471] |  | 34% | 0% | 750 nM |  |
| O=C[C@H](CC(=O)O)NC(=O)[C@@H]1CCCN2C(=O)CC[C@H](NC(=O)c3ccc(NC(=O)Cc4ccccc4)cc3)C(=O)N12 [Compound 486, [3S(1S,9S)]3-{6,10-Dioxo-1,2,3,4,7,8,9,10-octahydro-9-[4-(phenylacetamido)benzamido]-6H-pyridazino[1,2-a][1,2]diazepine-1-carboxamido}-4-oxobutanoic acid] |  | 15% | 19% | 480 nM | IC50 [1, 6]: 570 nM |
| CC(C)CC(=O)Nc1ccc(C(=O)N[C@H]2CCC(=O)N3CCC[C@@H](C(=O)N[C@H](C=O)CC(=O)O)N3C2=O)cc1 [Compound 487, [3S(1S,9S)]3-{6,10-Dioxo-9-[4-(3-methylbutan-1-oylamino)benzamido]-1,2,3,4,7,8,9,10-octahydro-6H-pyridazino[1,2-a][1,2]diazepine-1-carboxamido}-4-oxobutanoic acid] |  | 20% | 17% | 650 nM | IC50 [1, 6]: 950 nM |
| CC(=O)N1C[C@H](NC(=O)c2cc(Cl)c(O)c(Cl)c2)C(=O)N(CC(=O)N[C@H](C=O)CC(=O)O)c2ccccc21 [Compound 656, (3S)-3-[(3S)-2-Oxo-3-(3,5-dichloro, 4-hydroxybenzoyl)amino-5-acetyl-2,3,4,5-tetrahydro-1H-1,5-benzodiazepine-1-acetylamino-]4-oxo-butyric acid] | 2100 nM | 16% | 31% |  |  |
| O=C[C@H](CC(=O)O)NC(=O)CN1C(=O)[C@@H](NC(=O)c2cc(Cl)c(O)c(Cl)c2)CN(C(=O)CO)c2ccccc21 [Compound 662, (3S)-3-[(3S)-2-Oxo-3-(3,5-dichloro-4-hydroxybenzoyl)amino-5-(2-hydroxy)acetyl-2,3,4,5-tetrahydro-1H-1,5-benzodiazepine-1-acetylamino]-4-oxo-butyric acid] | 1800 nM | 75% | 41% |  |  |
| O=C[C@H](CC(=O)O)NC(=O)CN1C(=O)[C@@H](NC(=O)c2ccccc2)CN(C(=O)CO)c2ccccc21 [Compound 668, (3S)-3-[(3S)-2-Oxo-3-benzoylamino-5-(2-hydroxy)acetyl-2,3,4,5-tetrahydro-1H-1,5-benzodiazepine-1-acetylamino]-4-oxo-butyric acid] | 5200 nM |  |  |  | inhibition at 50 mg/kg [2, 7]: 53% |
| O=C[C@H](CC(=O)O)NC(=O)[C@@H]1CCCN2C(=O)CCN(NC(=O)c3ccc4c(c3)OCO4)C(=O)N12 [Compound 1015, [3S(4S)]3-[6,10-Dioxo-7-(3,4-methylenedioxybenzoylamino)-1,2,3,4,7,8,9,10-octahydro-6H-pyridazino[1,2-a][1,2,4]triazepine-4-carboxamido]-4-oxobutanoic acid] |  | 28% | 15% | 2500 nM |  |
| O=C1C[C@H](NC(=O)[C@@H]2CCCN3C(=O)CC[C@H](NC(=O)C(=O)c4ccccc4)C(=O)N23)C(OCc2ccccc2)O1 (stereo partly drawn) [Compound 2001, [1S,9S(2RS,3S)]9-Benzoylformylamino-6,10-dioxo-1,2,3,4,7,8,9,10-octahydro-N-(2(R,S)-benzyloxy-5-oxotetrahydrofuran-3-yl)-6H-pyridazino[1,2-a][1,2]-diazepine-1-carboxamide] |  | 58% | 64% | 1800 nM | Inhibition of IL-1β Production, compound administered 0 hr relative to LPS challenge [2]: ~57% and 58* %; Inhibition of IL-1β Production, compound administered +1 hr relative to LPS challenge [2]: ~54% and 55* %; Inhibition of IL-1β Production, compound administered −1 hr relative to LPS challenge [2]: ~62% and 62* %; Inhibition of IL-1β Production, compound administered −2 hr relative to LPS challenge [2]: ~63% and 64* %; inhibition at 50 mg/kg [2, 7]: 55%; inhibition at 50 mg/kg ([2]; 1 h, administered −1 h relative to time of LPS challenge): 62% |
| CC(C)OC1OC(=O)C[C@@H]1NC(=O)[C@@H]1CCCN2C(=O)CC[C@H](NC(=O)c3ccccc3)C(=O)N12 (stereo partly drawn) [Compound 2100a, [1S,9S(2RS,3S)]9-Benzoylamino-6,10-dioxo-1,2,3,4,7,8,9,10-octahydro-N-(2-isopropoxy-5-oxo-tetrahydro-furan-3-yl)-6H-pyridazino-[1,2-a][1,2]diazepine-1-carboxamide] |  |  |  | 1100 nM | Inhibition of IL-1β Production, compound administered 0 hr relative to LPS challenge [2]: 67%; Inhibition of IL-1β Production, compound administered +1 hr relative to LPS challenge [2]: 58%; Inhibition of IL-1β Production, compound administered −1 hr relative to LPS challenge [2]: 71%; Inhibition of IL-1β Production, compound administered −2 hr relative to LPS challenge [2]: 8% |
| CCOC(=O)C[C@H](NC(=O)[C@@H]1CCCN2C(=O)CC[C@H](NC(=O)c3ccccc3)C(=O)N12)C(OCC)OCC [Compound 2100b] |  |  |  | > 20000 nM | Inhibition of IL-1β Production, compound administered 0 hr relative to LPS challenge [2]: 47%; Inhibition of IL-1β Production, compound administered +1 hr relative to LPS challenge [2]: 26%; Inhibition of IL-1β Production, compound administered −1 hr relative to LPS challenge [2]: 0%; Inhibition of IL-1β Production, compound administered −2 hr relative to LPS challenge [2]: 0% |
| COC(=O)C[C@H](NC(=O)[C@@H]1CCCN2C(=O)CC[C@H](NC(=O)c3ccccc3)C(=O)N12)C(OC)OC [Compound 2100c] |  |  |  | > 20000 nM | Inhibition of IL-1β Production, compound administered 0 hr relative to LPS challenge [2]: 85%; Inhibition of IL-1β Production, compound administered +1 hr relative to LPS challenge [2]: 40%; Inhibition of IL-1β Production, compound administered −1 hr relative to LPS challenge [2]: 0%; Inhibition of IL-1β Production, compound administered −2 hr relative to LPS challenge [2]: 0% |
